Measurements: PubChem BioAssay AID1963863 (Molecular Pharmacology Branch, DTP, NCI, 2024)

System: 931267-113-T-J1-PDC KRAS spheroid with HUVEC/MSC, viability
Assay: Anticancer human tumor 931267-113-T-J1-PDC patient-derived colon adenocarcinoma cell line growth inhibition [KRAS2]
Conditions: for IC50: curve of first compound; for viability, T/C: stronger effect = lower value
Outline: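 KRAS-mutant tumor cells were grown as spheroids with HUVEC endothelial cells and human MSCs as stroma. Targeted agents were tested alone and with KRAS pathway inhibitors. Doses started at or near clinical Cmax, or 10 microM, descending half-log.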

[1] = second compound 0.0316 µM, first compound 0.00316 µM
[2] = second compound 0.0316 µM, first compound 0.01 µM
[3] = second compound 0.0316 µM, first compound 0.0316 µM
[4] = second compound 0.0316 µM, first compound 0.1 µM
[5] = second compound 0.0316 µM, first compound 0.316 µM
[6] = second compound 0.0316 µM, first compound 1 µM
[7] = second compound 0.1 µM, first compound 0.00316 µM
[8] = second compound 0.1 µM, first compound 0.01 µM
[9] = second compound 0.1 µM, first compound 0.0316 µM
[10] = second compound 0.1 µM, first compound 0.1 µM
[11] = second compound 0.1 µM, first compound 0.316 µM
[12] = second compound 0.1 µM, first compound 1 µM
[13] = second compound 0.316 µM, first compound 0.00316 µM
[14] = second compound 0.316 µM, first compound 0.01 µM
[15] = second compound 0.316 µM, first compound 0.0316 µM
[16] = second compound 0.316 µM, first compound 0.1 µM
[17] = second compound 0.316 µM, first compound 0.316 µM
[18] = second compound 0.316 µM, first compound 1 µM
[19] = second compound 1 µM, first compound 0.00316 µM
[20] = second compound 1 µM, first compound 0.01 µM
[21] = second compound 1 µM, first compound 0.0316 µM
[22] = second compound 1 µM, first compound 0.1 µM
[23] = second compound 1 µM, first compound 0.316 µM
[24] = second compound 1 µM, first compound 1 µM
[25] = second compound 3.16 µM, first compound 0.00316 µM
[26] = second compound 3.16 µM, first compound 0.01 µM
[27] = second compound 3.16 µM, first compound 0.0316 µM
[28] = second compound 3.16 µM, first compound 0.1 µM
[29] = second compound 3.16 µM, first compound 0.316 µM
[30] = second compound 3.16 µM, first compound 1 µM
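Note: compound exposure lasted 7 days before the readout.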
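Throughout, for viability, T/C: 100% = DMSO vehicle control viability.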

In the case of CCN1CCN(Cc2ccc(Nc3ncc(F)c(-c4cc(F)c5nc(C)n(C(C)C)c5c4)n3)nc2)CC1 + C=CC(=O)N1CCN(c2nc(OCC3CCCN3C)nc3c2CCN(c2cccc4cccc(C)c24)C3)CC1CC#N, the IC50 (second compound 0.0316 µM) is reported as over 1 µM, the IC50 (second compound 0.1 µM) is reported as 0.549 µM and the IC50 (second compound 0.316 µM) is reported as over 1 µM. For the same compound, the IC50 (second compound 1 µM) was 0.734 µM, the IC50 (second compound 3.16 µM) was under 0.00316 µM and the viability, T/C [1] was 108%. It also gave a viability, T/C [2] of 86%, a viability, T/C [3] of 70.7% and a viability, T/C [4] of 67.8%. For the same compound, the viability, T/C [5] was 65.7%, the viability, T/C [6] was 54% and the viability, T/C [7] was 83.8%. The viability, T/C [8] was 72.2%, the viability, T/C [9] was 68.2% and the viability, T/C [10] was 67.4%. For the same compound, the viability, T/C [11] was 61.8%, the viability, T/C [12] was 39.7% and the viability, T/C [13] was 93.7%. The viability, T/C [14] was 84.2%, the viability, T/C [15] was 64.3% and the viability, T/C [16] was 60%. The viability, T/C [17] was 64.6%, the viability, T/C [18] was 48.6% and the viability, T/C [19] was 73.8%. For the same compound, the viability, T/C [20] was 74.2%, the viability, T/C [21] was 77.3% and the viability, T/C [22] was 82.4%. For the same compound, the viability, T/C [23] was 61.2%, the viability, T/C [24] was 45.9% and the viability, T/C [25] was 0.66%. For the same compound, the viability, T/C [26] was 2.55%, the viability, T/C [27] was 0.2% and the viability, T/C [28] was 0.23%. It also gave a viability, T/C [29] of 0.3% and a viability, T/C [30] of 0.21%.

CCNC(=O)CC1N=C(c2ccc(Cl)cc2)c2cc(OC)ccc2-n2c(C)nnc21 (stereo not given) + C=CC(=O)N1CCN(c2nc(OCC3CCCN3C)nc3c2CCN(c2cccc4cccc(C)c24)C3)CC1CC#N gave an IC50 (second compound 0.0316 µM) of 3.97 µM, an IC50 (second compound 0.1 µM) of 2.56 µM and an IC50 (second compound 0.316 µM) of 1.43 µM. The IC50 (second compound 1 µM) was 1.03 µM, the IC50 (second compound 3.16 µM) was under 0.0316 µM and the viability, T/C [3] was 92%. For the same compound, the viability, T/C [4] was 80.3%, the viability, T/C [5] was 80.2% and the viability, T/C [6] was 51.9%. The viability, T/C (second compound 0.0316 µM, first compound 3.16 µM) was 61%, the viability, T/C (second compound 0.0316 µM, first compound 10 µM) was 38.1% and the viability, T/C [9] was 92.5%. For the same compound, the viability, T/C [10] was 81.4%, the viability, T/C [11] was 70.1% and the viability, T/C [12] was 60.6%. The viability, T/C (second compound 0.1 µM, first compound 3.16 µM) was 45.4%, the viability, T/C (second compound 0.1 µM, first compound 10 µM) was 41.6% and the viability, T/C [15] was 72.4%. For the same compound, the viability, T/C [16] was 74.7%, the viability, T/C [17] was 66.5% and the viability, T/C [18] was 52.9%. It also gave a viability, T/C (second compound 0.316 µM, first compound 3.16 µM) of 43.7%, a viability, T/C (second compound 0.316 µM, first compound 10 µM) of 38.9% and a viability, T/C [21] of 82.1%. The viability, T/C [22] was 69.1%, the viability, T/C [23] was 61.1% and the viability, T/C [24] was 51.1%. It also gave a viability, T/C (second compound 1 µM, first compound 3.16 µM) of 39.6%, a viability, T/C (second compound 1 µM, first compound 10 µM) of 31.5% and a viability, T/C [27] of 0.31%. For the same compound, the viability, T/C [28] was 0.3%, the viability, T/C [29] was 0.26% and the viability, T/C [30] was 0.17%. The viability, T/C (second compound 3.16 µM, first compound 3.16 µM) was 0.16% and the viability, T/C (second compound 3.16 µM, first compound 10 µM) was 0.17%.

In the case of Cn1ncnc1[C@H]1c2n[nH]c(=O)c3cc(F)cc(c23)N[C@@H]1c1ccc(F)cc1 + C=CC(=O)N1CCN(c2nc(OCC3CCCN3C)nc3c2CCN(c2cccc4cccc(C)c24)C3)CC1CC#N, the IC50 (second compound 0.0316 µM) is reported as over 0.1 µM, the IC50 (second compound 0.1 µM) is reported as over 0.1 µM and the IC50 (second compound 0.316 µM) is reported as over 0.1 µM. The IC50 (second compound 1 µM) was over 0.1 µM, the IC50 (second compound 3.16 µM) was under 0.000316 µM and the viability, T/C (second compound 0.0316 µM, first compound 0.000316 µM) was 118%. For the same compound, the viability, T/C (second compound 0.0316 µM, first compound 0.001 µM) was 89.7%, the viability, T/C [1] was 90% and the viability, T/C [2] was 75.5%. The viability, T/C [3] was 77.2%, the viability, T/C [4] was 80.7% and the viability, T/C (second compound 0.1 µM, first compound 0.000316 µM) was 102%. It also gave a viability, T/C (second compound 0.1 µM, first compound 0.001 µM) of 90.9%, a viability, T/C [7] of 69.8% and a viability, T/C [8] of 77.9%. It also gave a viability, T/C [9] of 78.2%, a viability, T/C [10] of 67.3% and a viability, T/C (second compound 0.316 µM, first compound 0.000316 µM) of 89.9%. The viability, T/C (second compound 0.316 µM, first compound 0.001 µM) was 66.3%, the viability, T/C [13] was 89.9% and the viability, T/C [14] was 86%. For the same compound, the viability, T/C [15] was 69.8%, the viability, T/C [16] was 66.3% and the viability, T/C (second compound 1 µM, first compound 0.000316 µM) was 76%. The viability, T/C (second compound 1 µM, first compound 0.001 µM) was 76.5%, the viability, T/C [19] was 68.5% and the viability, T/C [20] was 80.8%. For the same compound, the viability, T/C [21] was 68.8%, the viability, T/C [22] was 69.9% and the viability, T/C (second compound 3.16 µM, first compound 0.000316 µM) was 1.48%. It also gave a viability, T/C (second compound 3.16 µM, first compound 0.001 µM) of 4.65%, a viability, T/C [25] of 3.13% and a viability, T/C [26] of 15.2%. It also gave a viability, T/C [27] of 0.64% and a viability, T/C [28] of 8.16%.
